Experimental data: patent US6905834B1, “Bioluminescent bioreporter integrated circuit detection methods” (UT-Battelle, LLC, priority 1997, dated 2005)
Where two headings read alike, the source gives them in different places. Marks after values point to notes of the source that are not given here.

What was measured:
P. putida TVA8 = assay type: cell-based, Pseudomonas putida; conditions: for light response (in words): approximately 50 mg/L (JP-4 approx. 2%), 2 h; for Specific Bioluminescence: approximately 50 mg/L
P. putida B2 = test: Immobilized cell reactor (DVR) with alginate-encapsulated P. putida B2: bioluminescence and TCE co-metabolism; assay type: cell-based, Pseudomonas putida
Procedure: In the batch and reactor studies, bioluminescence was measured using a photomultiplier, which converts the light to an electric current. The photomultiplier in the resting cell assays and the reactor system was connected to a computer and bioluminescence as namps current was recorded.
P. putida B2 was encapsulated in alginate beads for the immobilized cell reactor system. Cells were grown in 1 L LB to an OD546 of 1.2 and were centrifuged at 5500×g for 10 min, washed three times in 0.9% NaCl and suspended in 40 ml 0.9% NaCl. The cell suspension was added to 80 ml of an alginic acid solution (28 g L^−1 low viscosity alginate, 0.9% NaCl) (Webb, 1992). The cell-alginate suspension was placed in a 60-ml syringe, forced through a 25-gauge needle, and allowed to drop into a 0.5 M CaCl2 Solution. The alginate was cross-linked by the Ca^2+ ions, thus encapsulating the cells. The cells were subsequently placed in a fresh solution of 0.1 M CaCl2 and allowed to sit for 30 min prior to use.
A differential volume reactor (DVR) was used to simulate a section of an ideal plug flow reactor. Influent to the reactor was dispersed through a porous metal frit to provide a flat velocity profile to the bed. The reactor measured 5.0 cm i.d.×5.0 cm long. A complete description of this reactor can be found in Webb et al. (1991). In this investigation, a system was designed incorporating the DVR as illustrated in FIG. 17. The system was equipped with three Millipore (Bedford, Mass.) stainless steel substrate containers rated to 690 kPa. The feed from the substrate vessels to the reactor inlet was controlled by two Filson (Middleton, Wis.) 301 HPLC pumps. A flow rate of 0.4 ml min^−1 was maintained. The substrate vessels were pressurized with oxygen to provide the system with an electron acceptor. All medium vessels contained trace mineral medium (Lackey et al., 1993) with the addition of 3 mg L^−1 pyruvic acid and a 0.1 M solution of Tris-base (pH 7.0). phosphate buffers were not used since phosphate ions complex with Ca^2+ ions and disrupt with alginate crosslinking. In addition to this medium, two of the vessels contained either TCE or toluene. The inlet concentration of toluene was altered by using square-wave perturbations with 20-h cycles (10 h with toluene, 10 h without toluene) using an HPLC pump controlled by a timer. During feed portions of the cycle, 10 mg L^−1 toluene was introduced into the inlet of the reactor. The inlet TCE concentration was constant at 20 mg L^−1.
Analysis of TCE in the reactor effluent was performed online using a stripping column (12.5 cm length and 0.4 cm inner diameter) packed with 3-mm glass beads to provide adequate surface area for TCE separation. TCE was stripped with helium, the GC carrier gas. The stripping column outlet was attached to a gas chromatograph (GC, Hewlett Packard (Wilmington, Del.) (HP) 5890 Series II) with an electron capture detector by a heated sample line maintained at 75° C. Automatic injections (25 μl) were made by a computerized control process (HP Chem Station software). The GC was equipped with a cross-linked methyl silicone capillary column (length 30 n, i.d 0.2 mm, 0.33-μm film thickness) while the oven was operated isothermally at 60° C. Other operating parameters included an injection temperature of 150° C., detector temperature of 200° C. and a split ratio of 10:1. This system was equipped with a bypass line around the reactor in order to calibrate the stripping column.
Toluene samples were removed at 0.5-ml aliquots from the effluent sampling port (FIG. 17) and injected into 1.5 ml sample vials. Headspace analysis was performed using a Shimadzu (Columbia, Md.) GC-9A gas chromatograph equipped with a 2.44-m, 3.2-mm diameter Poropak N packed column and a flame ionization detector. The isothermal temperature of the oven was 210° C., and both the detector and injector temperatures were 220° C.

[1] = exposure 2 hours, normalized to final OD546, average ± SD of three replicates
[2] = inlet TCE 20 mg/L, toluene being introduced

| SMILES | light response (in words) (P. putida TVA8) | Specific Bioluminescence (P. putida TVA8; [1]) [namp/OD] | other results |
| --- | --- | --- | --- |
| Oc1ccccc1 [Phenol, phenol] | significant light response | 70 ± 2 |  |
| CCc1ccccc1 [Ethylbenzene, ethylbenzene] |  | 1.0 ± 0.2 | induction of bioluminescence response in pre-grown cells (P. putida TVA8; 50 mg/L, cells previously grown on ethylbenzene, growing cell assays): induce the bioluminescence response without a lag period; Specific Bioluminescence (P. putida TVA8; exposure 4 hours, from a similar but separate study): 47 ± 6^c namp/OD |
| ClC=C(Cl)Cl [TCE, trichloroethylene] |  |  | toxic effects of continuous TCE exposure (in words) (P. putida B2; 20 mg/l TCE): there did not appear to be any toxic effects; induction of the tod operon by TCE (in words) (P. putida B2; absence of toluene, 20 mg/L TCE): did not appear to induce the tod operon; TCE removal (P. putida B2; [2]): 20%; steady-state TCE effluent concentration (P. putida B2; [2]): 16.5 ± 0.2 mg/L |
| c1ccccc1 [Benzene, benzene] | significant light response | 242 ± 9 |  |
| Cc1ccc(C)cc1 [p-xylene] | significant light response | 24 ± 2 |  |
| Cc1cccc(C)c1 [m-xylene] | significant light response | 38 ± 3 |  |
| Cc1ccccc1C [o-xylene] | no increase of bioluminescence | 0.5 ± 0.1 |  |
